Measurements as given in patent US20130338155A1, “METHOD FOR TREATING INFECTIONS” (SYNTA PHARMACEUTICALS CORP., priority 2006, published 2013).

Columns and labels:
[1] = test system: Her2; test: Degradation of Her2 in BT-474 cells (Method 1, Western blot); format: cell-based, Human; settings: overnight, FIG. 2
Protocol: Human high-Her2 breast carcinoma BT474 (HTB-20), SK-BR-3 (HTB-30) and MCF-7 breast carcinoma (HTB-22) from American Type Culture Collection, Va., USA were grown in Dulbecco's modified Eagle's medium with 4 mM L-glutamine and antibiotics (100 IU/ml penicillin and 100 ug/ml streptomycine; GibcoBRL). To obtain exponential cell growth, cells were trypsinized, counted and seeded at a cell density of 0.5×10^6 cells/ml regularly, every 3 days. All experiments were performed on day 1 after cell passage.
BT-474 cells were treated with 0.5 μM, 2 μM, or 5 μM of 17AAG (a positive control) or 0.5 μM, 2 μM, or 5 μM of Compound 108 or Compound 49 overnight in DMEM medium. After treatment, each cytoplasmic sample was prepared from 1×10^6 cells by incubation of cell lysis buffer (#9803, cell Signaling Technology) on ice for 10 minutes. The resulting supernatant used as the cytosol fractions were dissolved with sample buffer for SDS-PAGE and run on a SDS-PAGE gel, blotted onto a nitrocellulose membrane by using semi-dry transfer. Non-specific binding to nitrocellulose was blocked with 5% skim milk in TBS with 0.5% Tween at room temperature for 1 hour, then probed with anti-Her2/ErB2 mAb (rabbit IgG, #2242, Cell Signaling) and anti-Tubulin (T9026, Sigma) as, housekeeping control protein. HRP-conjugated goat anti-rabbit IgG (H+L) and HRP-conjugated horse anti-mouse IgG (H+L) were used as secondary Ab (#7074, #7076, Cell Signaling) and LumiGLO reagent, 20× Peroxide (#7003, Cell Signaling) was used for visualization.

[2] = test system: Hsp90 protein; test: Malachite Green Assay of ATPase activity of Hsp90 protein; format: biochemical; settings: 37° C. for 4 hours, FIG. 1
Protocol: Hsp90 protein was obtained from Stressgen (Cat#SPP-770). Assay buffer: 100 mM Tris-HCl, Ph7.4, 20 mM KCl, 6 mM MgCl2. […] Malachite green reagent was added to the reaction. […] The plate was read by an ELISA reader with an absorbance at 620 nm.

Compound	degradation of Her2 ([1]; 0.5 μM)	degradation of Her2 ([1]; 2 μM)	degradation of Her2 ([1]; 5 μM)	inhibition of ATPase activity of Hsp90 ([2]; 4 μM)	inhibition of ATPase activity of Hsp90 ([2]; 40 μM)
CCc1cc(-c2nnc(S)n2-c2cccc3ccccc23)c(O)cc1O [Compound 49, 3-(2,4-Dihydroxy-5-ethyl-phenyl)-4-(naphthalen-1-yl)-5-mercapto-triazole]	partial degradated	complete degradation	complete degradation		
Oc1ccc(-c2nnc(S)n2-c2cccc3ccccc23)c(O)c1 [Compound 108, 3-(2,4-Dihydroxy-phenyl)-4-(naphthalen-1-yl)-5-mercapto-triazole]	partially degradated	partially degradated	almost completely degraded	significant inhibition	even greater inhibition of ATPase activity of Hsp90 than geldanamycin
